Experiments:
rh LOXL2 = target: T1, rh LOXL2 (Homo sapiens, UniProt Q9Y4K0); experiment: Jump dilution assay, rh LOXL2; type: biochemical
T1 sequence (Q9Y4K0 26-774): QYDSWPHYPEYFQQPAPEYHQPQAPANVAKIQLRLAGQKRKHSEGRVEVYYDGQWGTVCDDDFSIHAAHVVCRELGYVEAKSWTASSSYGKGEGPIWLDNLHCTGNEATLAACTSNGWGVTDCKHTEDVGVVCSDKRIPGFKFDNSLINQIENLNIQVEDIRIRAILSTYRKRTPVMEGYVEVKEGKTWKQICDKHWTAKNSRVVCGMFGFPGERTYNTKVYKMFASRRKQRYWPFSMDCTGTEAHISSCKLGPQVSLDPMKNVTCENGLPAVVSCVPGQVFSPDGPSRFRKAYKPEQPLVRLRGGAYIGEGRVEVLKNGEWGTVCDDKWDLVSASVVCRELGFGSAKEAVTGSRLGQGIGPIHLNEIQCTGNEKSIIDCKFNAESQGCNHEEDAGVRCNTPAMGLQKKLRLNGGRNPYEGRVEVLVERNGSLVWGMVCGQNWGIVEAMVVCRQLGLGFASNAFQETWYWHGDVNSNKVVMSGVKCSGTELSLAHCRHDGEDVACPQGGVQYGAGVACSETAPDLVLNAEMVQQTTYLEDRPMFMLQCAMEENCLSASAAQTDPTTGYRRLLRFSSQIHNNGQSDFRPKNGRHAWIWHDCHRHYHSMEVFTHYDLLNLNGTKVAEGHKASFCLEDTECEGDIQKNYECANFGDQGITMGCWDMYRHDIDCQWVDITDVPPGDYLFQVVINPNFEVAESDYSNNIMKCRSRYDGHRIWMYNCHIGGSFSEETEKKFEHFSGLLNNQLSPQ
Excerpt: FIGURE 1 Characteristics of the activity‐based probe (ABP) PXS‐5878. (A) Chemical structure of PXS‐5878, with functional subunits denoted with different colours. The fluoroallylamine moiety (blue) was designed to interact with the lysine tyrosylquinone (LTQ) co‐factor within the lysyl oxidase active sites. An extended linker (green) was incorporated to provide optimal separation between the reactive functional group and the tag, avoiding unfavourable steric hindrance. Biotin was selected as a tag, with higher sensitivity found to be achieved using a double tag (red), resulting in PXS‐5878 as the preferred ABP. (B) Concentration‐dependent inhibition of recombinant human (rh) lysyl oxidase‐like 1‐4 (LOXL1‐4) and native bovine LOX in a standard Amplex Red assay with 30 min pre‐incubation; n = 3–4 independent experiments, standard error of mean (SEM). Native bovine LOX was used as a surrogate for human LOX as both enzymes have similar pharmacology for fluoroallylamines.[2], [9] (C) Irreversible nature of PXS‐5878 enzyme inhibition confirmed using a jump dilution assay. Enzyme (rh LOXL1, rh LOXL2 or LOXL3) was pre‐incubated with 10 × IC50 of PXS‐5878 for 30 min, then diluted 100x and remaining activity assessed by Amplex Red assay. […] Each value is an average of three experiments. (D) Schematic representation of the assay development to detect lysyl oxidase activity by PXS‐5878 using a direct enzyme‐linked assay with lysyl oxidases as the target analyte. HRP: horseradish peroxidase; TMB: 3,3′,5,5′‐tetramethylbenzidine, a chromogenic substrate. […]
For fluoroallylamine-based inhibitors, replacement of fluorine with hydrogen (leading to the corresponding des-fluoro structures) results in a drop in potency and a switch from irreversible to reversible inhibition. […] (B) For PXS-5878, removal of the fluoro moiety in a simplified analogue results in a significant drop in potency for LOXL2, meaning (ir)reversibility cannot be accurately measured.

[1] = Pharmacokinetic profile in healthy human males; type: in vivo
Procedure: FIGURE 3 Inhibition of human lysyl oxidase‐like 2 (LOXL2) enzymatic activity by PXS‐5338 in clinical trials. (A) LOXL2 protein concentration in human serum is fairly constant over 24 h. Protein concentrations normalised to pre‐dose levels are plotted over time in healthy subjects treated with different doses (placebo, 100, 200 and 400 mg) of PXS‐5338. Mean ± SD with n = 6/time point. Phase 1 study with healthy male volunteers, ANZCTR ACTRN12617001444370. Legend of (A) also applies to (B) and (C). (B) Dose‐dependent inhibition of LOXL2 in plasma following a single oral dose of 100, 200 mg or 400 mg PXS‐5338. PXS‐5878/Simoa® platform used to measure the residual activity. Mean ± SD with n = 6/time point. (C) Pharmacokinetic (PK) profile of PXS‐5338 in healthy human males. […] (D) Correlation between LOXL2 protein concentration versus % inhibition. Activity data normalised to pre‐dose value.

- Mode of inhibition (reversible/irreversible) of LOXL2 (rh LOXL2): irreversibly inhibits the enzyme
- Compound half-life in humans [1]: prolonged compound half‐life
SMILES: CC(C)c1c(Cc2ccc(S(C)(=O)=O)nc2)c2ncccc2n1C/C(F)=C/CN [PXS‐5338]

Reference: publication PMC8571951, “An activity‐based bioprobe differentiates a novel small molecule inhibitor from a LOXL2 antibody and provides renewed promise for anti‐fibrotic therapeutic strategies” (Clinical and Translational Medicine, 2021)
